Measurements: patent US20230172936A1, “VCP/p97 INHIBITOR FOR THE TREATMENT OF CANCER” (Cleave Therapeutics, Inc., priority 2020, published 2023)
“And” between values parts separate entries of the source, which are not always exact repeats. Equal entries are not always repeated. Where two headings read alike, the source gives them in different places.

Assays:
[1] = Human plasma pharmacokinetics (Phase I dose escalation)
Excerpt: BID dosing may be also tested depending on initial PK assessments. Participants will be evaluated regularly for safety assessments including physical examinations and laboratory testing. Bone marrow aspirates and/or biopsies will be performed at regular intervals, including for assessment of tumor response as per 2017 European LeukemiaNet (ELN) response criteria for AML or 2006 revised International Working Group (IWG) response criteria for MDS. Peripheral blood samples will be collected in Cycle 1 for intensive PK testing and PD biomarker assessments. Additional intensive PK testing will be collected for any participants undergoing intra-patient dose escalation.
A cycle consists of 28 days and the first cycle will comprise the DLT observation period.
Following the protocol of Example 7, additional patients were treated in the dose escalation study.

MV-411 cell line = test: Cytotoxicity by Cell Titer Glo; format: cell-based; conditions: Homo sapiens, MV4-11, 144 h, 6 days
Method: Acute myelogenous leukemia (AML) is the most common acute leukemia in adults. A hematologic cancer, the disease is highly heterogeneous, with multiple subtypes. About 30% of AML cases harbor a FLT3/ITD mutation making the disease highly proliferative and more aggressive with a high risk of relapse.
Triplicate wells with media only and duplicate wells of vehicle (0.2% DMSO) were used as negative controls. […] To measure proliferation, untreated cells at days 0 and 6 were evaluated via Cell Titer Glo.
Protocol: • 1. AML cells were thawed and resuspended in enriched media composed of StemSpan™ Serum-Free Expansion Media (SFEM), 2% heat-inactivated FBS, StemSpan™ CC110 and recombinant human IL-3. • 2. 20,000 cells/well in 100 μL volume were plated on study day 0. • 3. […] Cells were incubated in the presence of drug for 6 days. • 5. On day 6, plates were removed from the incubator and equilibrated to room temperature for 20 minutes. 100 μL/well Cell Titer Glo was added to each well and incubated for 10 minutes before plate reading. • 6. Luminescence was recorded using Tecan Infinite M Plex plate reader.

[2] = Adverse events and visual impairment in Phase I subjects
[3] = Excerpt: (§1) Group 1 received PO 4-days on, 3-days off doses (QD4/3 off) of vehicle.
[4] = system: human A549 lung adenocarcinoma xenograft tumors; test: Tumor growth of A549 xenograft tumors; format: in vivo, mice; conditions: 18 day period
Excerpt: as §1

p97 = p97 (Homo sapiens, UniProt P55072); test: P97 inhibition assay (ADP glo); format: biochemical
Method: The p97 assay is an assay used to determine inhibitory activity of compounds against the p97 complex. Inhibition of activity of the p97 proteosome complex can enable apoptosis and cause elimination of neoplastic cells (cancer cells). The assay follows that of Christianson in Nat. Cell Biol., (2011) 14:93. The reagents used for the p97 assay include an assay buffer which is a mixture of 50 mM TRIS pH 7.5, 20 mM MgCI˜, 0.02% TX-100, 1 mM DTT and 0.2% (v/v) glycerol. The well plate is a Corning 3674, 384w plate. The identification kit is an ADP glo kit (Promega): stop buffer, detection reagent.
The assay is conducted as follows: • Serial dilute compound in DMSO in a 1:3.33-fold 10 point serial dilution. • In each well of 384w plate add the following reagents: 0.5 μL compound serial diluted in DMSO (Final Conc. 10%) 2 μL ATP (Final Conc.=20 μM, diluted in assay buffer) 2.5 μL p97 (Final Conc.=20 nM, diluted in assay buffer). • Incubate at 37° C. for 15 min. • Add 5 μL of stop buffer, incubate at RT for 40 min. • Add 10 μL of detection reagent, incubate at RT for 30 min. • Read luminescence on Envision plate reader. […]

p97, sequence (P55072 whole entry): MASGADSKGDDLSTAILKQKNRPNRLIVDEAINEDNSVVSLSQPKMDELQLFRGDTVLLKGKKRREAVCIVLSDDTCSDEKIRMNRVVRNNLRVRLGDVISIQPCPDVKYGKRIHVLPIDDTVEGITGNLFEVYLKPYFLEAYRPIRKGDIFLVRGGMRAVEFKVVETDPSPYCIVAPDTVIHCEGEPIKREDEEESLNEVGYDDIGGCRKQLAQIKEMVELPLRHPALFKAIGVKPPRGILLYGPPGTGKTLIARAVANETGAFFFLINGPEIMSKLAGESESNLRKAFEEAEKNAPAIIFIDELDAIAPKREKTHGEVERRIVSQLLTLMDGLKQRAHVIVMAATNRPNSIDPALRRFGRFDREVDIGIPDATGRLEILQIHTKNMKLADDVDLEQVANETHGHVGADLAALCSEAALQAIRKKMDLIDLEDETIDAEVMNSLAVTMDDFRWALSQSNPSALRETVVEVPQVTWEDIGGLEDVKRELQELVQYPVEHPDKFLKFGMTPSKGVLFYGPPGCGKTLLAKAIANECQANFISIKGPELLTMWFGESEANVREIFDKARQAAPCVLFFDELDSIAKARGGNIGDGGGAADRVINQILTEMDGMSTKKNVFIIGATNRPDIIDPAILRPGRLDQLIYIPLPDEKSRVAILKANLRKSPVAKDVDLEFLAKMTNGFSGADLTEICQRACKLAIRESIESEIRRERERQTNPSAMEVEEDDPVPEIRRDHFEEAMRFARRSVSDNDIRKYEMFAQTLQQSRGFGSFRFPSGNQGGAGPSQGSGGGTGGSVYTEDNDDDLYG

## Cc1cc2c(C(N)=O)cccc2n1-c1nc2c(c(NCc3ccccc3)n1)CCCN2 [Compound 1, 1-(4-(Benzylamino)-5,6,7,8-tetrahydropyrido[2,3-d]pyrimidin-2-yl)-2-methyl-1H-indole-4-carboxamide]
[1]; 25 mg QD, Day 4
  AR: 0.914
[1]; 25 mg QD, between days 1 and 4
  accumulation: No accumulation
[1]; 100 mg QD, two of three subjects
  exposure with concomitant proton pump inhibitors (PPi): lower exposure
[1]; 25, 50, 100 and 175 mg QD, 9 patients
  exposure level increases between the doses: proportional and linear
[1]; Compound 1 25 mg QD vs CB-5083 40 mg QD
  plasma exposure compared with CB-5083: significantly higher plasma exposure
[1]; Compound 1 25 mg QD vs CB-5083 at greater than 200 mg, FIG. 7
  exposures compared with CB-5083: greater than dosing CB-5083 at greater than 200 mg
[1]; dose escalation 25-175 mg QD, FIG. 8
  exposures compared with CB-5083: greater than dosing CB-5083
[1]; human, in vivo, 25 mg
  Tmax: 2 h
  tmax: 2 h
[1]; human, in vivo, 25 mg, AUC0-inf
  AUC(0-inf): 1.03 µM·h and 425 ng·h/mL
[1]; human, in vivo, 25 mg, AUC0-t
  AUC(0-t): 0.88 µM·h and 364 ng·h/mL
[1]; human, in vivo, 25 mg, Cmax
  Cmax: 198 nM and 81.7 ng/mL
[1]; human, in vivo, 25 mg, half-life
  half-life: 3 to 4 h
[1]; human, in vivo, 25 mg, t1/2
  half-life: 2.61 h
MV-411 cell line
  IC50: 262 nM
[2]; 25 mg QD, two subjects
  adverse events: No adverse events
  symptoms of visual impairment: no symptoms of visual impairment
[2]; any dose levels, highest level 275 mg QD
  symptoms of visual impairment or other visual events: No symptoms of visual impairment or other visual events
[2]; at equivalent plasma exposure of Compound 1 and CB-5083
  symptoms of visual impairment or other visual adverse events: no symptoms of visual impairment or other visual adverse events
[3]; 100 mg/kg QD4/3 off
  drug-related deaths: a single drug-related death
  tolerability of dosing regimen: generally tolerated
[3]; 100 mg/kg QD4/3 off, day 2
  mean body weight loss: −7.0%
[3]; 150 mg/kg BIW cohort
  deaths: No deaths
[3]; 150 mg/kg BIW, day 2
  body weight loss: −1.5%
[3]; 150 mg/kg BIW, day 3
  body weight loss: −3.9%
[3]; 225 mg/kg 1/W cohort
  drug related deaths: A single drug related death
[3]; 225 mg/kg weekly, day 4
  body weight loss: −8.1%
[4]; 100 mg/kg QD4/3 off
  TGI: 61%
[4]; 150 mg/kg BIW, PO
  tumor growth inhibition (TGI): 20%
[4]; 225 mg/kg once weekly (1/W)
  TGI: 31%
p97
  IC50: < 30 nM
